Measured values as given in patent publication US10940139B2, “Compounds that interact with the Ras superfamily for the treatment of cancers, inflammatory diseases, rasopathies, and fibrotic disease” (Shy Therapeutics LLC, priority 2017, dated 2021).

Key:
Assay type in all cases: cell-based
[1] = system: MIA-PACA2 pancreatic cancer cell lines; assay: Cell proliferation assay (CellTiter 96 AQueous One); conditions: Homo sapiens, MIA PaCa-2; for inhibition at 30 µM: MIA-PACA2
Experimental: Cell lines: Tumor-derived pancreatic cancer cell lines MIA-PACA2 were purchased from ATCC and grown in complete DMEM-High Glucose medium supplemented with penicillin (100 U/mL), streptomycin (100 μg/mL), and 10% heat-inactivated FBS at 37° C. in a humidified incubator with 5% CO2.
Method: Cells are plated at 1000 cells/well density in 96-wells plate, starved ON, and the next day tested small molecules are added to the cells in the final concentration of 30 μM with 0.3% DMSO 3 hours prior to 10% FBS addition. After serum addition cells are incubated for 6 days at 37° C. in a humidified incubator with 5% CO2. For IC50 value determination, serial dilutions of compounds were added to cells under the same conditions.
Assay: At the end of the incubation period, cell cultures are tested using the CellTiter 96® AQueous One Solution Cell Proliferation Assay kit (Promega Corporation, Madison, Wis.) according to the manufacturer specifications. Briefly, assay is performed by adding 20 μl of the CellTiter 96 Aqueous One Solution Reagent directly to culture wells, followed by for 1-4 hours incubation at 37° C. in a humidified incubator with 5% CO2. At the end of incubation time, absorbance at 492 nm is recorded with the 96-well plate reader Eppendorf AF2200, and degree of small molecule-dependent proliferation inhibition is calculated from raw data assuming No Serum cells value as 100%.

[2] = system: TNFα production in RAW 264.7 macrophage cell line; assay: Mouse TNF alpha quantification assay (LPS-stimulated macrophages, ELISA); conditions: RAW264.7, RAW 264.7 murine leukemia virus transformed macrophage cell lines, LPS stimulation, read-out: TNF-α % Inhibition at 30 μM
[3] = system: IL6 production in RAW 264.7 macrophage cell line; assay: Mouse IL6 quantification assay (LPS-stimulated macrophages, ELISA); conditions: RAW264.7, RAW 264.7 murine leukemia virus transformed macrophage cell lines, LPS stimulation, read-out: IL-6 % Inhibition at 30 μM

IC50 ([1]; MIA-PACA2, same assay as the % inhibition (standard conditions))	SMILES	inhibition at 30 µM [1]	inhibition at 30 µM [2]	inhibition at 30 µM [3]
	Oc1nc(-c2ccccn2)nc2c1ncn2-c1ccccn1 [drawing 1584]	76 to 100%		
	O=C(CNc1nc(-c2ccccn2)nc2scc(-c3ccccc3)c12)NC1CC1 [drawing 1612]	76 to 100%		
	COCCCC1CCN(C(=O)c2csc3c(O)nc(-c4ccccn4)nc23)CC1 [drawing 1566]	76 to 100%		
	COc1cccc(C2CN(C(=O)c3csc4c(O)nc(-c5ccccn5)nc34)CCN2)c1 (stereo not shown) [drawing 1666]	76 to 100%		
	O=C(c1csc2c(O)nc(-c3ccccn3)nc12)N1CCNC(c2ccccc2F)C1 (stereo not shown) [drawing 1669]	76 to 100%		
	O=C(c1csc2c(O)nc(-c3ccccn3)nc12)N1CCNC(c2ccc(O)cc2)C1 (stereo not shown) [drawing 1701]	76 to 100%		
	CN(Cc1cnn(C)c1)c1nc(-c2ccccn2)nc2scc(-c3ccccc3)c12 [drawing 1604]	76 to 100%		
	O=C1CCN(c2nc(-c3ccccn3)nc3scc(-c4ccccc4)c23)CC1 [drawing 1627]	76 to 100%		
	Nc1nc(-c2ccccn2)nc2scc(C(=O)O)c12 [drawing 1782]	1 to 25%		
	COc1ccccc1C1CC1C(=O)Nc1nnc(-c2ccccn2)[nH]1 (stereo not shown) [drawing 1447]	25 to 50%		
	N#Cc1ccc(COCC(=O)Nc2nc(-c3ccccn3)nc3sccc23)cc1 [drawing 1692]	76 to 100%		
	Oc1nc(-c2ccccn2)nc2c(-c3ccc4c(c3)OCO4)csc12 [drawing 1755]	76 to 100%		
	Cc1ccc(CN(Cc2ccco2)C(=O)c2oc3ccccc3c2C)cc1 [drawing 1520]	1 to 25%		
	CC(C)COC(C)C(=O)Nc1nnc(-c2ccccn2)[nH]1 (stereo not shown) [drawing 1418]	76 to 100%		
	Oc1nc(-c2ccccn2)nc2c(-c3cncc(C(F)(F)F)c3)csc12 [drawing 1788]	76 to 100%		
> 1000 nM	COCC(C)Nc1nc(-c2ccccn2)nc2sc(C)c(-c3ccccc3)c12 (stereo not shown) [drawing 1510]	76 to 100%		
	Cn1ccnc1-c1nc(O)c2scc(-c3cccc(Cl)c3)c2n1 [drawing 2444]		0%	51 to 75%
	Cc1cc2nc(-c3ccccn3)nc(N)c2s1 [drawing 2229]		1 to 25%	1 to 25%
	COc1ccc(N2CCN(C(=O)c3csc4c(O)nc(-c5ccccn5)nc34)CC2)c(OC)c1 [drawing 2184]		0%	76 to 100%
	Oc1nc(-c2ccccn2)nc2c(-c3cccc(C(F)(F)F)c3)csc12 [drawing 2265]		76 to 100%	76 to 100%
	NC(=O)C1CCN(c2nc(-c3ccccn3)nc3scc(-c4ccccc4)c23)CC1 [drawing 2164]		1 to 25%	1 to 25%

IC50 ([1]; MIA-PACA2, same assay as the % inhibition (standard conditions))	SMILES	inhibition at 30 µM [1]	inhibition at 30 µM [2]	inhibition at 30 µM [3]
	CN(CC(=O)Nc1nnc(-c2ccccn2)[nH]1)S(C)(=O)=O [drawing 1959]		1 to 25%	0%
	CC(C)c1nc(CC(=O)Nc2nnc(-c3ccccn3)[nH]2)cs1 [drawing 1949]		0%	1 to 25%
	COCCNc1nc(-c2nccn2C)nc2sc(-c3ccccc3)c(-c3ccccc3Cl)c12 [drawing 2407]		1 to 25%	51 to 75%
	Oc1nc(-c2ccccn2)nc2c(-c3cc(F)ccc3OC(F)F)csc12 [drawing 2252]		26 to 50%	76 to 100%
	O=C(CNc1nc(-c2ccccn2)nc2scc(-c3ccccc3)c12)NC1CC1 [drawing 2149]		26 to 50%	26 to 50%
	O=C(c1csc2c(O)nc(-c3ccccn3)nc12)N1CCC(c2cccc(O)c2)C1 (stereo not shown) [drawing 2233]		26 to 50%	76 to 100%
	O=C(Nc1nc(-c2ccccn2)cs1)C1COc2ccccc2O1 (stereo not shown) [drawing 2007]		1 to 25%	0%
	Oc1nc(-c2ccccn2)nc2c1ncn2-c1ccccn1 [drawing 2124]		0%	26 to 50%
	O=C(Nc1nc(-c2ccccn2)cs1)c1ccccn1 [drawing 2014]		1 to 25%	51 to 75%
	O=C(Nc1nnc(-c2ccccn2)[nH]1)c1ncoc1-c1cccs1 [drawing 1963]		1 to 25%	26 to 50%
	COc1ccccc1-c1csc2c(O)nc(-c3ccccn3)nc12 [drawing 2262]		51 to 75%	76 to 100%
	Cn1ccnc1-c1nc(NCCOC(F)(F)F)c2c(-c3ccccc3)c(-c3ccccc3)sc2n1 [drawing 2395]		1 to 25%	26 to 50%
	COc1nc(-c2ccccn2)nc(Oc2cccc(C(F)(F)F)c2)c1OC [drawing 2379]		1 to 25%	1 to 25%
	Oc1nc(-c2ccccn2)nc2c(-c3ccc(OC4CCOC4)cc3)csc12 (stereo not shown) [drawing 2254]		26 to 50%	76 to 100%
	Oc1nc(-c2ccccn2)nc2c(-c3ccccc3F)csc12 [drawing 2260]		51 to 75%	76 to 100%
	c1ccc(-c2csc3nc(-c4ccccn4)nc(N4CCN(CC5CCCO5)CC4)c23)cc1 (stereo not shown) [drawing 2140]		26 to 50%	51 to 75%
	COc1ccnc(-c2nc(O)c3c(Br)csc3n2)c1 [drawing 2172]		26 to 50%	76 to 100%
	COC(=O)c1csc2nc(-c3ccccn3)nc(N)c12 [drawing 2287]		0%	51 to 75%
	Cn1ccnc1-c1nc(NCCCO)c2c(-c3ccccc3)c(-c3ccccc3)sc2n1 [drawing 2406]		26 to 50%	51 to 75%
	COCCNc1nc(-c2cn(C)cn2)nc2sc(C)c(-c3ccccc3)c12 [drawing 2412]		26 to 50%	1 to 25%
	OC1CCN(c2nc(-c3ccccn3)nc3scc(-c4ccccc4)c23)CC1 [drawing 2156]		1 to 25%	26 to 50%

IC50 ([1]; MIA-PACA2, same assay as the % inhibition (standard conditions))	SMILES	inhibition at 30 µM [1]	inhibition at 30 µM [2]	inhibition at 30 µM [3]
	O=C(Nc1nnc(-c2ccccn2)[nH]1)c1ccc2c(c1)CCO2 [drawing 1930]		0%	1 to 25%
	COc1ccc(OCc2nc(CNCCc3nnc4n3CCC4)cs2)cc1 [drawing 2006]		0%	1 to 25%
	O=C(COCc1ccccc1Cl)Nc1nnc(-c2ccccn2)[nH]1 [drawing 1973]		1 to 25%	26 to 50%
	Cn1ccnc1-c1nc(O)c2sc(-c3ccccc3)c(-c3ccccc3Cl)c2n1 [drawing 2422]		51 to 75%	76 to 100%
	O=S(=O)(c1ccccc1)N1CCCc2c(O)nc(-c3ccccn3)nc21 [drawing 2084]		1 to 25%	0%
	Cc1ccccc1C1CN(C(=O)c2csc3c(O)nc(-c4ccccn4)nc23)CCN1 (stereo not shown) [drawing 2199]		1 to 25%	76 to 100%
	Cc1sc2c(O)nc(-c3nccn3C)nc2c1-c1ccc(F)cc1F [drawing 2448]		0%	51 to 75%
	O=C(c1csc2c(O)nc(-c3cccnc3)nc12)N1CCNC(Cc2cccc(F)c2)C1 (stereo not shown)		1 to 25%	26 to 50%
	O=C(Nc1nc(-c2ccccn2)cs1)c1ccc(F)cc1 [drawing 2020]		26 to 50%	26 to 50%
	Cn1ccnc1-c1nc(O)c2scc(-c3ccc(C(C)(C)C)cc3)c2n1 [drawing 2446]		0%	1 to 25%
	O=C(Cc1cccc(F)c1)Nc1nnc(-c2ccccn2)[nH]1 [drawing 1960]		0%	1 to 25%
	COc1cccc(-c2csc3c(O)nc(-c4ccccn4)nc23)c1 [drawing 2264]		26 to 50%	76 to 100%
	COC(=O)C(C)CN(Cc1cc(Br)ccc1[N+](=O)[O-])C1CC1 (stereo not shown) [drawing 2063]		0%	26 to 50%
	Cc1sc2[nH]c(-c3ccccn3)nc(=O)c2c1-c1ccccc1 [drawing 2026]		1 to 25%	0%
	CCOc1cc(C(=O)Oc2c(C)ccc(C)c2C)cc(OCC)c1OCC [drawing 2057]		1 to 25%	51 to 75%
	COCCNc1nc(-c2nccn2C)nc2sc(-c3ccccc3)c(-c3ccc(OC)cc3)c12 [drawing 2416]		51 to 75%	76 to 100%
	Cc1ccc(-c2cc3nc(-c4ccccn4)nc(O)c3s2)cc1 [drawing 2382]		1 to 25%	1 to 25%
	O=C(Nc1nnc(-c2ccccn2)[nH]1)C1CCCC(C(F)(F)F)C1 (stereo not shown) [drawing 1972]		0%	1 to 25%
	Oc1nc(-c2ccccn2)nc2c(-c3cncc(C(F)(F)F)c3)csc12 [drawing 2304]		0%	1 to 25%
	COC(=O)c1c(C)sc2c(O)nc(-c3ccccn3)nc12 [drawing 2311]		1 to 25%	76 to 100%
